Laboratory results: patent US6054435A, “6-O-substituted macrolides having antibacterial activity” (priority 1999, dated 2000)
In brackets after ≈: the same amount, converted by molar mass.

How the values were obtained:
Test in all cases: in vitro antibacterial activity (MIC), agar dilution
Format in all cases: cell-based
[1] = test system: Mycobacterium smegmatis ATCC 114; conditions: organism code UU; BHI agar, 35-37° C., 20 to 24 hours; unit assumed
Outline: (§1)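 Test compound serially diluted in Brain Heart Infusion agar across twelve plates; inocula of 1:100 dilution (1:10 for slow growers such as Streptococcus) applied by Steers replicator. MIC taken visually as lowest concentration giving no growth, slight haze or sparse isolated colonies versus drug-free growth control.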

[2] = test system: Streptococcus Pneumonia 5649; conditions: organism code ZZA; BHI agar, 35-37° C., 20 to 24 hours; unit assumed
Outline: as §1

[3] = test system: Staphylococcus aureus CMX 553; conditions: organism code FF; BHI agar, 35-37° C., 20 to 24 hours; unit assumed
Outline: as §1

[4] = test system: Staphylococcus aureus 1775; conditions: organism code GG; BHI agar, 35-37° C., 20 to 24 hours; unit assumed
Outline: as §1

[5] = test system: Enterococcus faecium ATCC 8043; conditions: organism code II; BHI agar, 35-37° C., 20 to 24 hours; unit assumed
Outline: as §1

[6] = test system: Staphylococcus aureus ATCC 6538P; conditions: organism code AA; BHI agar, 35-37° C., 20 to 24 hours; unit assumed
Outline: as §1

[7] = test system: Staphylococcus aureus A-5278; conditions: organism code CC; BHI agar, 35-37° C., 20 to 24 hours; unit assumed
Outline: as §1

[8] = test system: Staphylococcus aureus A5177; conditions: organism code BB; BHI agar, 35-37° C., 20 to 24 hours; unit assumed
Outline: as §1

[9] = test system: Streptococcus pyogenes PIU 2548; conditions: organism code NN; BHI agar, 35-37° C., 20 to 24 hours; unit assumed
Outline: as §1

[10] = test system: Haemophilis Influenzae DILL AMP R; conditions: organism code WW; BHI agar, 35-37° C., 20 to 24 hours; unit assumed
Outline: as §1

[11] = test system: Streptococcus agalactiae CMX 508; conditions: organism code KK; BHI agar, 35-37° C., 20 to 24 hours; unit assumed
Outline: as §1

[12] = test system: Nocardia Asteroides ATCC9970; conditions: organism code VV; BHI agar, 35-37° C., 20 to 24 hours; unit assumed
Outline: as §1

[13] = test system: Streptococcus pyogenes EES61; conditions: organism code LL; BHI agar, 35-37° C., 20 to 24 hours; unit assumed
Outline: as §1

Escherichia coli SS = conditions: organism code RR; BHI agar, 35-37° C., 20 to 24 hours; unit assumed
Outline: as §1

[14] = test system: Staphylococcus aureus CMX 642A; conditions: organism code DD; BHI agar, 35-37° C., 20 to 24 hours; unit assumed
Outline: as §1

[15] = test system: Streptococcus bovis A-5169; conditions: organism code JJ; BHI agar, 35-37° C., 20 to 24 hours; unit assumed
Outline: as §1

[16] = test system: Streptococcus Pneumonia ATCC6303; conditions: organism code XX; BHI agar, 35-37° C., 20 to 24 hours; unit assumed
Outline: as §1

Escherichia coli DC-2 = conditions: organism code SS; BHI agar, 35-37° C., 20 to 24 hours; unit assumed
Outline: as §1

[17] = test system: Streptococcus Pneumonia 5979; conditions: organism code ZZ; BHI agar, 35-37° C., 20 to 24 hours; unit assumed
Outline: as §1

[18] = test system: Micrococcus luteus ATCC 4698; conditions: organism code PP; BHI agar, 35-37° C., 20 to 24 hours; unit assumed
Outline: as §1

[19] = test system: Streptococcus Pneumonia GYR 1171; conditions: organism code YY; BHI agar, 35-37° C., 20 to 24 hours; unit assumed
Outline: as §1

[20] = test system: Staphylococcus epidermidis 3519; conditions: organism code HH; BHI agar, 35-37° C., 20 to 24 hours; unit assumed
Outline: as §1

Escherichia coli JUHL = conditions: organism code QQ; BHI agar, 35-37° C., 20 to 24 hours; unit assumed
Outline: as §1

[21] = test system: Staphylococcus aureus NCTC10649M; conditions: organism code EE; BHI agar, 35-37° C., 20 to 24 hours; unit assumed
Outline: as §1

[22] = test system: Micrococcus luteus ATCC 9341; conditions: organism code OO; BHI agar, 35-37° C., 20 to 24 hours; unit assumed
Outline: as §1

Candida albicans CCH 442 = conditions: organism code TT; BHI agar, 35-37° C., 20 to 24 hours; unit assumed
Outline: as §1

[23] = test system: Streptococcus pyogenes 930; conditions: organism code MM; BHI agar, 35-37° C., 20 to 24 hours; unit assumed
Outline: as §1

SMILES | MIC [1] | MIC [2] | MIC [3] | MIC [5] | MIC [6] | MIC [7] | MIC [8] | MIC [9] | MIC [10] | MIC [11] | MIC [12] | MIC (Escherichia coli SS) | MIC [14] | MIC [15] | MIC (Escherichia coli DC-2) | MIC [18] | MIC [19] | MIC [20] | MIC (Escherichia coli JUHL) | MIC [21] | also measured
CC[C@H]1OC(=O)[C@H](C)C(=O)[C@H](C)[C@@H](O[C@@H]2O[C@H](C)C[C@H](N(C)C)[C@H]2O)[C@](C)(OCC#Cc2ccc(-c3cccc(C)c3)s2)C[C@@H](C)C(=O)[C@H](C)[C@H]2NC(=O)O[C@@]21C [Example 18] | 0.1 µg/mL (≈ 0.124 µM) | 0.5 µg/mL (≈ 0.618 µM) | 0.1 µg/mL (≈ 0.124 µM) | 0.1 µg/mL (≈ 0.124 µM) | 0.1 µg/mL (≈ 0.124 µM) | 25 µg/mL (≈ 30.9 µM) | 0.1 µg/mL (≈ 0.124 µM) | 0.2 µg/mL (≈ 0.247 µM) | 2 µg/mL (≈ 2.47 µM) | 0.02 µg/mL (≈ 0.0247 µM) | 0.1 µg/mL (≈ 0.124 µM) | 0.78 µg/mL (≈ 0.964 µM) | 0.1 µg/mL (≈ 0.124 µM) | 0.01 µg/mL (≈ 0.0124 µM) | > 100 µg/mL | 0.2 µg/mL (≈ 0.247 µM) | 0.03 µg/mL (≈ 0.0371 µM) | 0.2 µg/mL (≈ 0.247 µM) | > 100 µg/mL | 0.2 µg/mL (≈ 0.247 µM) | MIC [4]: 12.5 µg/mL (≈ 15.5 µM); MIC [13]: 0.02 µg/mL (≈ 0.0247 µM); MIC [16]: 0.06 µg/mL (≈ 0.0742 µM); MIC [17]: 2 µg/mL (≈ 2.47 µM); MIC [22]: 0.02 µg/mL (≈ 0.0247 µM); MIC (Candida albicans CCH 442): > 100 µg/mL; MIC [23]: 1.56 µg/mL (≈ 1.93 µM)
CC[C@H]1OC(=O)[C@H](C)C(=O)[C@H](C)[C@@H](O[C@@H]2O[C@H](C)C[C@H](N(C)C)[C@H]2O)[C@](C)(OCC#Cc2ccc(-c3cc(Cl)cc(Cl)c3)s2)C[C@@H](C)C(=O)[C@H](C)[C@H]2NC(=O)O[C@@]21C [Example 17] | 0.78 µg/mL (≈ 0.903 µM) | 1 µg/mL (≈ 1.16 µM) | 0.78 µg/mL (≈ 0.903 µM) | 0.78 µg/mL (≈ 0.903 µM) | 0.39 µg/mL (≈ 0.451 µM) | 12.5 µg/mL (≈ 14.5 µM) | 0.78 µg/mL (≈ 0.903 µM) | 0.39 µg/mL (≈ 0.451 µM) | 8 µg/mL (≈ 9.26 µM) | 0.2 µg/mL (≈ 0.232 µM) | 0.78 µg/mL (≈ 0.903 µM) | 12.5 µg/mL (≈ 14.5 µM) | 0.78 µg/mL (≈ 0.903 µM) | 0.2 µg/mL (≈ 0.232 µM) | > 100 µg/mL | 0.78 µg/mL (≈ 0.903 µM) | 0.125 µg/mL (≈ 0.145 µM) | 0.78 µg/mL (≈ 0.903 µM) | > 100 µg/mL | 1.56 µg/mL (≈ 1.81 µM) | MIC [4]: 12.5 µg/mL (≈ 14.5 µM); MIC [13]: 0.39 µg/mL (≈ 0.451 µM); MIC [17]: 1 µg/mL (≈ 1.16 µM); MIC [22]: 0.39 µg/mL (≈ 0.451 µM); MIC (Candida albicans CCH 442): > 100 µg/mL; MIC [23]: 3.1 µg/mL (≈ 3.59 µM)
CC[C@H]1OC(=O)[C@H](C)[C@@H](O[C@H]2C[C@@](C)(OC)[C@@H](O)[C@H](C)O2)[C@H](C)[C@@H](O[C@@H]2O[C@H](C)C[C@H](N(C)C)[C@H]2O)[C@](C)(O)C[C@@H](C)C(=O)[C@H](C)[C@@H](O)[C@]1(C)O [Ery. A, Erythromycin A, reference compound] | 3.1 µg/mL (≈ 4.22 µM) | 16 µg/mL (≈ 21.8 µM) | 0.39 µg/mL (≈ 0.531 µM) | 0.05 µg/mL (≈ 0.0681 µM) | 0.2 µg/mL (≈ 0.273 µM) | > 100 µg/mL | 3.1 µg/mL (≈ 4.22 µM) | 6.2 µg/mL (≈ 8.45 µM) | 4 µg/mL (≈ 5.45 µM) | 0.05 µg/mL (≈ 0.0681 µM) | 0.1 µg/mL (≈ 0.136 µM) | 0.78 µg/mL (≈ 1.06 µM) | 0.39 µg/mL (≈ 0.531 µM) | 0.02 µg/mL (≈ 0.0273 µM) | > 100 µg/mL | 0.2 µg/mL (≈ 0.273 µM) | 0.06 µg/mL (≈ 0.0818 µM) | 0.39 µg/mL (≈ 0.531 µM) | > 100 µg/mL | 0.39 µg/mL (≈ 0.531 µM) | MIC [4]: > 100 µg/mL; MIC [13]: 0.05 µg/mL (≈ 0.0681 µM); MIC [16]: 0.06 µg/mL (≈ 0.0818 µM); MIC [22]: 0.05 µg/mL (≈ 0.0681 µM); MIC (Candida albicans CCH 442): > 100 µg/mL; MIC [23]: > 100 µg/mL
CC[C@H]1OC(=O)[C@H](C)C(=O)[C@H](C)[C@@H](O[C@@H]2O[C@H](C)C[C@H](N(C)C)[C@H]2O)[C@](C)(OC/C=C/c2ccc(-c3cccc(F)c3)s2)C[C@@H](C)C(=O)[C@H](C)[C@H]2NC(=O)O[C@@]21C [Example 72] | 1.56 µg/mL (≈ 1.91 µM) | 1 µg/mL (≈ 1.23 µM) | 0.2 µg/mL (≈ 0.245 µM) | 0.05 µg/mL (≈ 0.0613 µM) | 0.2 µg/mL (≈ 0.245 µM) | 25 µg/mL (≈ 30.7 µM) | 0.2 µg/mL (≈ 0.245 µM) | 0.39 µg/mL (≈ 0.479 µM) | 8 µg/mL (≈ 9.82 µM) | 0.01 µg/mL (≈ 0.0123 µM) | 0.39 µg/mL (≈ 0.479 µM) | 1.56 µg/mL (≈ 1.91 µM) | 0.2 µg/mL (≈ 0.245 µM) | ≤ 0.005 µg/mL | > 100 µg/mL | 0.05 µg/mL (≈ 0.0613 µM) | 0.125 µg/mL (≈ 0.153 µM) | 0.2 µg/mL (≈ 0.245 µM) | > 100 µg/mL | 0.2 µg/mL (≈ 0.245 µM) | MIC [4]: 25 µg/mL (≈ 30.7 µM); MIC [16]: 0.125 µg/mL (≈ 0.153 µM); MIC [17]: 4 µg/mL (≈ 4.91 µM); MIC [22]: 0.02 µg/mL (≈ 0.0245 µM); MIC (Candida albicans CCH 442): > 100 µg/mL; MIC [23]: 12.5 µg/mL (≈ 15.3 µM)
CC[C@H]1OC(=O)[C@H](C)C(=O)[C@H](C)[C@@H](O[C@@H]2O[C@H](C)C[C@H](N(C)C)[C@H]2O)[C@](C)(OCC#Cc2ccc(-c3ccsc3)s2)C[C@@H](C)C(=O)[C@H](C)[C@H]2NC(=O)O[C@@]21C [Example 27] | 0.2 µg/mL (≈ 0.25 µM) | 0.25 µg/mL (≈ 0.312 µM) | 0.05 µg/mL (≈ 0.0624 µM) | 0.01 µg/mL (≈ 0.0125 µM) | 0.05 µg/mL (≈ 0.0624 µM) | 100 µg/mL (≈ 125 µM) | 0.05 µg/mL (≈ 0.0624 µM) | 0.1 µg/mL (≈ 0.125 µM) | 2 µg/mL (≈ 2.5 µM) | ≤ 0.005 µg/mL | 0.01 µg/mL (≈ 0.0125 µM) | 0.2 µg/mL (≈ 0.25 µM) | 0.05 µg/mL (≈ 0.0624 µM) | ≤ 0.005 µg/mL | 100 µg/mL (≈ 125 µM) | 0.05 µg/mL (≈ 0.0624 µM) | 0.015 µg/mL (≈ 0.0187 µM) | 0.05 µg/mL (≈ 0.0624 µM) | 100 µg/mL (≈ 125 µM) | 0.05 µg/mL (≈ 0.0624 µM) | MIC [13]: ≤ 0.005 µg/mL; MIC [16]: 0.015 µg/mL (≈ 0.0187 µM); MIC [17]: 4 µg/mL (≈ 4.99 µM); MIC [22]: ≤ 0.005 µg/mL; MIC (Candida albicans CCH 442): > 100 µg/mL; MIC [23]: 6.2 µg/mL (≈ 7.74 µM)
